This note sets out measurements from patent US5110725A, “Optical probe for the cytochrome P-450 cholesterol side chain cleavage enzyme” (The United States of America as represented by the United …, priority 1991, dated 1992).

SMILES strings stand for the structures.

Data set [1] deals with T1, P-450scc enzyme (Gallus gallus, UniProt O13254).
T1 sequence (O13254 32-508): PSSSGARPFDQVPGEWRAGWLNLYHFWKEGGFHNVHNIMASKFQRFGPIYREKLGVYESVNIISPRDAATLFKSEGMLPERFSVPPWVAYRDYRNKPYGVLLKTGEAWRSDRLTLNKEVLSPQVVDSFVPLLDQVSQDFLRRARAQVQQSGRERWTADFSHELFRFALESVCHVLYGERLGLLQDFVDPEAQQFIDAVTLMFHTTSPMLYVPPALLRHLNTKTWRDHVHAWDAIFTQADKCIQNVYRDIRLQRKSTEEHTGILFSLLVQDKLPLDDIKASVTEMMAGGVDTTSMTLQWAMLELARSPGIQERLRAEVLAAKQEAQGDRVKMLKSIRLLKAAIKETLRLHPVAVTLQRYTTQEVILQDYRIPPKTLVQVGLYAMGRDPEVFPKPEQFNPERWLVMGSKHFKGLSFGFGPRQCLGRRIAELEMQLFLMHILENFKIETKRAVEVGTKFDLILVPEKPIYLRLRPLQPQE
Description: Spectrofluorometry of resorufin production in mitochondrial preparations from chicken granulosa and MA-10 cells. The settings on record: for effect of inhibitor on observed resorufin fluorescence: added to steroidogenic mitochondrial preparations incubated with the probe. It is filed as biochemical. As to the method:
(§1) A saturated stock solution of probe 10 was made in 95% ethanol and filtered with a 0.2 μm filter to a concentration of 100 μM. Probe 10 was added at 1:50 or 1:100 dilutions to cell or mitochondria suspensions.
(§2) Cell Preparations: Granulosa cell layers were collected separately from the 5 largest preovulatory follicles of laying hens and cells were dispersed by collagenase digestion (Endocrinology 122:651-658). The cell concentration was adjusted to 1×10^6 cells/mL in modified medium 199 (no phenol red; added 25 mM HEPES, 0.35 g/L sodium bicarbonate, 100 mg/L 1-glutamate, and 1 g/L bovine serum albumin). The MA-10 cells (Endocrinology 108:88-95) were grown in RPMI-1640 medium supplemented with 15% horse serum and used three days after plating. Cell cultures of the Chinese hamster ovary (CHO) cell line were grown in spinner flasks with Ham's F-10 medium supplemented with 15% bovine calf serum. Media were obtained from Gibco BRL (Gaithersburg, Md.) and sera were obtained from HyClone Laboratories (Logan, Utah). Except where indicated all other reagents for cell preparations were obtained from Sigma Chemical Co. (St. Louis, Mo.). Cells in suspension (1×10^6 /mL) were kept on ice prior to use and at 37° C. during all incubations with probe 10.
Spectrofluorometry: Fluorescence emission measurements were obtained on a SPEX Fluorolog-II spectrofluorometer (SPEX Industries, Inc., Edison, N.J.) fitted with a thermostatted cuvette holder and interfaced to an IBM-AT computer for data collection and processing. Resorufin fluorescence was measured from 550-700 nm (8 nm slit width) with 530 nm excitation (10 nm slit width). Spectra were background-corrected by spectral subtraction of the initial (zero) time point. Samples were incubated at 37° C. during the experiment.

Data set [2] is classed as physicochemical. The settings on record: 95% ethanol. The protocol:
as §1

The subject of data set [3] is nonsteroidogenic CHO cells. Description: Fourier transform flow cytometry with nonsteroidogenic CHO cells. It is filed as cell-based, Chinese hamster. As to the method:
as §2
A single argon laser tuned to 514 nm was used to excite both the substrate and product. […]
(§3) By monitoring spectral changes in the cellular fluorescence at discrete time points from 30 min to 5 h with the FTCS-1 an increased metabolism of the substrate to the product resorufin was observed. […]
(In flow cytometry, cells or beads pass a laser one at a time.)

The next data set concerns P-450scc. Put plainly: Selectivity of the probe in intact mitochondria and cells. It is filed as cell-based. The protocol:
as §1

Data set [4] concerns P-450scc enzyme. Description: Spectrofluorometry of probe metabolism in MA-10 and granulosa cell suspensions. The format is cell-based. As to the method:
as §1
(§4) Cell Preparations: Granulosa cell layers were collected separately from the 5 largest preovulatory follicles of laying hens and cells were dispersed by collagenase digestion (Endocrinology 122:651-658). The cell concentration was adjusted to 1×10^6 cells/mL in modified medium 199 (no phenol red; added 25 mM HEPES, 0.35 g/L sodium bicarbonate, 100 mg/L 1-glutamate, and 1 g/L bovine serum albumin). […]
(§5) Spectrofluorometry: Fluorescence emission measurements were obtained on a SPEX Fluorolog-II spectrofluorometer (SPEX Industries, Inc., Edison, N.J.) fitted with a thermostatted cuvette holder and interfaced to an IBM-AT computer for data collection and processing. Resorufin fluorescence was measured from 550-700 nm (8 nm slit width) with 530 nm excitation (10 nm slit width). […]
To confirm cellular metabolism, both MA-10 and granulosa cell suspensions were incubated with varying concentrations of the probe substrate. Fluorescence emission was monitored at discrete times from 0-4 h. […] Based on the amount of fluorescence in a typical cell incubation the cumulative conversion of the probe was in the concentration range of 100-300 pM. […]

Data set [5] deals with granulosa cells. Description: Conventional two-laser flow cytometric analysis of P-450scc activity in granulosa cells. The format is cell-based, laying hens. The following applies: 37° C., 5 min to 2 h. The protocol: as §2
Uptake of the substrate (green fluorescence) plateaued at 30 minutes, presumably as the cells equilibrated with the P-450scc probe in solution.

In data set [6] the test system is granulosa cells. Put plainly: Fourier transform flow cytometry of substrate metabolism in individual granulosa cells. The format is cell-based, laying hens. The protocol: as §2, with “Except where indicated all other reagents for cell preparations were obtained from Sigma Chemical Co. (St. Louis, Mo.). Cells in suspension (1×10^6 /mL) were kept on ice prior to use and at 37° C. during all incubations with probe 10.” left out
The Fourier transform flow cytometer was used to track the metabolism of the fluorogenic substrate in individual granulosa cells. […] Using this instrument, cellular fluorescence of the substrate is resolved from the cellular fluorescence of the product, resorufin anion, based on their unique spectral characteristics during the uptake and metabolism of the P-450scc probe.
as §3

In data set [7] the test system is nonsteroidogenic CHO cells. Description: Spectrofluorometry with mitochondrial preparations from nonsteroidogenic CHO cells. It is filed as biochemical, Chinese hamster. The protocol:
as §1
as §2, with “Except where indicated all other reagents for cell preparations were obtained from Sigma Chemical Co. (St. Louis, Mo.). Cells in suspension (1×10^6 /mL) were kept on ice prior to use and at 37° C. during all incubations with probe 10.” left out
as §5

A short description of data set [8]: Fluorescence quantum efficiency relative to the resorufin anion. The format is physicochemical. The settings on record: resorufin conjugated at C-22. The source says:
Referring now to FIG. 2, the P-450scc probe 10 is a cholene-based steroid covalently conjugated at the C-22 position to resorufin. As a result of this conjugation the resorufin fluorescence is shifted and has a 40-fold lower quantum efficiency than the resorufin anion. Specificity of probe 10 for the P-450scc enzyme is achieved by incorporating known structural and stereochemical features to the cholene-ring for enzyme recognition. Generation of a fluorescent signal is obtained by release of the resorufin moiety 16 by the side chain cleavage enzyme.
Resorufin (7-hydroxy-3H-phenoxazin-3-one) was chosen as a fluorogenic reporter because of its advantageous spectral properties and its modest size. […] Presumably, metabolism of a resorufin ether 10 by P-450scc proceeds by hydroxylation at the C-1 position of the ether side chain, to yield a resorufin hemiacetal that undergoes cleavage to afford the highly fluorescent resorufin anion. The fluorescence signal generated by the formation of resorufin anion is a quantitative indicator of enzyme activity.

The test system of a further data set is granulosa or MA-10 cells. Put plainly: Progesterone radioimmunoassay after incubation of granulosa or MA-10 cells with the probe. The following applies: 3-5 h incubation, 1-2 μM probe. The format is cell-based. The protocol:
as §4, with “albumin). The MA-10 cells (Endocrinology 108:88-95) were grown in RPMI-1640 medium supplemented with 15% horse serum and used three days after plating. Cell cultures of the Chinese hamster ovary (CHO) cell line were grown in spinner flasks with Ham's F-10 medium supplemented with 15% bovine calf serum.” for “albumin).”
To confirm cellular metabolism, both MA-10 and granulosa cell suspensions were incubated with varying concentrations of the probe substrate. Fluorescence emission was monitored at discrete times from 0-4 h. […] Based on the amount of fluorescence in a typical cell incubation the cumulative conversion of the probe was in the concentration range of 100-300 pM. After long (3-5 h) incubations of granulosa or MA-10 cells with a high concentration (1-2 μM) of the P-450scc probe, a two-fold accumulation of progesterone over the background progesterone content of the cells was measured by specific progesterone radioimmunoassay (Endocrine Sciences, Tarzana, Calif.).

Take `CCC1(c2ccc(N)cc2)CCC(=O)NC1=O` (stereo not shown) [aminoglutethimide]: at P-450scc enzyme [1], the “effect of inhibitor on observed resorufin fluorescence” value is “attenuated the observed fluorescence”.

Consider `CC(=O)N1CCN(c2ccc(OCC3COC(Cn4ccnc4)(c4ccc(Cl)cc4Cl)O3)cc2)CC1` (stereo not shown) [ketoconazole], for which, on P-450scc enzyme [1], the “effect of inhibitor on observed resorufin fluorescence” value was “attenuated the observed fluorescence”.

In the case of `C[C@H](COc1ccc2nc3ccc(=O)cc-3oc2c1)[C@H]1CC[C@H]2[C@@H]3CC=C4C[C@@H](O)CC[C@]4(C)[C@H]3CC[C@]12C` [probe 10, 22-phenoxazonoxy-5-cholene-3β-ol], at P-450scc enzyme [1] (steroidogenic mitochondria (chicken granulosa, MA-10), 30 min to 5 h, substrate 0.01 to 2 μM), the resorufin production result is on record as “resorufin production was observed”. Further, the “concentration of saturated stock solution” value in data set [2] is 100 µM. Also, the cellular fluorescence spectrum result in data set [3] (CHO cells, 3 h incubation) is recorded as “remained primarily consistent with the substrate spectrum”. The “metabolism of the substrate to resorufin” value in [3] (nonsteroidogenic CHO cells) is “no evidence of significant metabolism”. Further, the selectivity result in the data set with P-450scc was “selective for P-450scc activity”. In addition, the “resorufin fluorescence over time” value in the data set on P-450scc enzyme [4] (MA-10 and granulosa cell suspensions, 0-4 h, varying probe concentrations) is listed as “linear increase in resorufin fluorescence”. Further, in the data set with P-450scc enzyme [4] (typical cell incubation, based on amount of fluorescence), the “cumulative conversion of the probe” value was in the range of 100 to 300 pM. Further, in the data set with granulosa cells [5], the “product (red fluorescence) in cells during incubation” value is on record as “continued to increase” and the “time at which uptake of the substrate (green fluorescence) plateaued” value was determined as 30 min. Further, in the data set with granulosa cells [6] (30 min to 5 h), the “average ratio of the two fluorescent components (substrate and resorufin) over time” value is “linear increase”. In addition, the “alignment of the cell distribution with the product resorufin” value in the data set on granulosa cells [6] (after 5 h) is on record as ~100%. In data set [7], the production of fluorescence result is on record as “no production of fluorescence”. Further, the “quantum efficiency lower than the resorufin anion” value in [8] was 40 fold. Also, the “accumulation of progesterone over background progesterone content of the cells” value in the data set with granulosa or MA-10 cells is “two-fold”.
